According to PubChem BioAssay AID212 (DTP/NCI, 2004):
Values joined by “and” are separate entries in the source; they are usually repeats but may differ in a detail not shown here. Equal values may be shown once. Records with an inconclusive call do not appear.

System: BDF1 mice, colon carcinoma 38 sc, T/C %
Test: NCI In Vivo Anticancer Drug Screen. Data for tumor model Colon Carcinoma 38 (subcutaneous) in B6D2F1 (BDF1) mice
Details: endpoint: median tumor weight (est.), higher = larger tumour
Summary of the method: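 Compound antitumor activity was assessed in mice carrying transplantable tumors. Survival or tumor size was recorded, and each value is the treated-group measurement divided by that of the vehicle-treated control group.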

[1] = dose: 100.0 mg/kg/injection, schedule: Q07DX002 (ip), vehicle: saline with Tween-80
[2] = dose: 25.0 mg/kg/injection, schedule: Q07DX002 (ip), vehicle: Klucel (hydroxypropylcellulose) (HPC)
[3] = dose: 50.0 mg/kg/injection, schedule: Q07DX002 (ip), vehicle: Klucel (hydroxypropylcellulose) (HPC)
[4] = dose: 100.0 mg/kg/injection, schedule: Q07DX002 (ip), vehicle: Klucel (hydroxypropylcellulose) (HPC)
[5] = dose: 25.0 mg/kg/injection, schedule: Q07DX002 (ip), vehicle: saline with Tween-80
[6] = dose: 50.0 mg/kg/injection, schedule: Q07DX002 (ip), vehicle: saline with Tween-80
[7] = dose: 400.0 mg/kg/injection, schedule: Q07DX002 (ip), vehicle: saline with Tween-80
[8] = dose: 12.5 mg/kg/injection, schedule: Q07DX002 (ip), vehicle: saline with Tween-80
[9] = dose: 200.0 mg/kg/injection, schedule: Q07DX002 (ip), vehicle: saline with Tween-80
[10] = dose: 200.0 mg/kg/injection, schedule: Q07DX002 (ip), vehicle: Klucel (hydroxypropylcellulose) (HPC)
[11] = dose: 400.0 mg/kg/injection, schedule: Q07DX002 (ip), vehicle: saline

O=C1NCC(Br)C(=O)N1 (stereo not drawn)
T/C (dose: 12.5 mg/kg/injection, schedule: Q07DX002 (ip), vehicle: saline + Tween-80 + alcohol): 97 % of control
T/C (dose: 25.0 mg/kg/injection, schedule: Q07DX002 (ip), vehicle: saline + Tween-80 + alcohol): 83 % of control
T/C (dose: 50.0 mg/kg/injection, schedule: Q07DX002 (ip), vehicle: saline + Tween-80 + alcohol): 99 % of control
T/C (dose: 100.0 mg/kg/injection, schedule: Q07DX002 (ip), vehicle: saline + Tween-80 + alcohol): 76 % of control
T/C [1]: 157 % of control
T/C (dose: 200.0 mg/kg/injection, schedule: Q07DX002 (ip), vehicle: saline + Tween-80 + alcohol): 84 % of control
T/C (dose: 400.0 mg/kg/injection, schedule: Q07DX002 (ip), vehicle: saline + Tween-80 + alcohol): 63 % of control

CCCC(=O)OCc1cc(=O)n(C)c2c3c4c(cc12)c(C)cc(=O)n4CO3
T/C (dose: 6.25 mg/kg/injection, schedule: Q07DX002 (ip), vehicle: Klucel (hydroxypropylcellulose) (HPC)): 99 % of control
T/C (dose: 12.5 mg/kg/injection, schedule: Q07DX002 (ip), vehicle: Klucel (hydroxypropylcellulose) (HPC)): 96 % of control
T/C [2]: 162 % of control
T/C [3]: 150 % of control
T/C [4]: 64 % of control

CCC(CC)COC(=O)c1ccccc1C(=O)OCC(CC)CC
T/C [5]: 71 % of control
T/C [6]: 92 % of control
T/C [7]: 122 % of control

C(=N/NC1=NCCN1)/c1c2ccccc2c(/C=N\NC2=NCCN2)c2ccccc12
T/C (dose: 5.0 mg/kg/injection, schedule: Q07DX002 (ip), vehicle: suspension in saline): 100 % of control
T/C (dose: 10.0 mg/kg/injection, schedule: Q07DX002 (ip), vehicle: suspension in saline): 109 % of control
T/C (dose: 20.0 mg/kg/injection, schedule: Q07DX002 (ip), vehicle: suspension in saline): 110 % of control
T/C (dose: 40.0 mg/kg/injection, schedule: Q07DX002 (ip), vehicle: suspension in saline): 70 % of control

CC[C@]1(O)C[C@H]2CN(CCc3c([nH]c4ccccc34)[C@@](C(=O)OC)(c3cc4c(cc3OC)N(C=O)[C@H]3[C@@](O)(C(=O)OC)[C@H](OC(C)=O)[C@]5(CC)C=CCN6CC[C@]43[C@@H]65)C2)C1
T/C (dose: 0.01 mg/kg/injection, schedule: Q07DX002 (ip), vehicle: saline): 123 % of control
T/C (dose: 0.03 mg/kg/injection, schedule: Q07DX002 (ip), vehicle: saline): 94 % of control
T/C (dose: 0.06 mg/kg/injection, schedule: Q07DX002 (ip), vehicle: saline): 95 % of control
T/C (dose: 0.12 mg/kg/injection, schedule: Q07DX002 (ip), vehicle: saline): 54 % of control
T/C (dose: 1.0 mg/kg/injection, schedule: Q07DX002 (ip), vehicle: saline): 96 % of control and 106 % of control
T/C (dose: 4.0 mg/kg/injection, schedule: Q07DX002 (ip), vehicle: saline): 43 % of control and 63 % of control

CC1(c2ccc(Cl)cc2)OC(=O)C(=Cc2ccc([N+](=O)[O-])s2)C(=O)O1 (stereo not drawn)
T/C [8]: 77 % of control
T/C [5]: 63 % of control
T/C [6]: 101 % of control
T/C [1]: 100 % of control
T/C [9]: 79 % of control

Cc1ccc(N)c(N)c1
T/C [5]: 80 % of control
T/C [6]: 89 % of control
T/C [1]: 101 % of control
T/C [9]: 114 % of control
T/C [7]: 96 % of control

COC(=O)[C@@]12OC[C@]34[C@H]([C@@H](O)[C@@H]1O)[C@@]1(C)CC(=O)C(O)=C(C)[C@@H]1C[C@H]3OC(=O)[C@H](OC(=O)/C=C(\C)C(C)C)[C@@H]24
T/C (dose: 0.25 mg/kg/injection, schedule: Q07DX003 (ip), vehicle: other): 72 % of control
T/C (dose: 0.5 mg/kg/injection, schedule: Q07DX003 (ip), vehicle: other): 98 % of control

CC1c2ccccc2Cn2cc3c(c21)C(=O)c1cccc(OP(=O)(O)OCc2ccccc2)c1C3=O (stereo not drawn)
T/C (dose: 0.5 mg/kg/injection, schedule: Q01DX012 (ip), vehicle: saline with Tween-80): 62 % of control
T/C (dose: 1.0 mg/kg/injection, schedule: Q01DX012 (ip), vehicle: saline with Tween-80): 73 % of control
T/C (dose: 2.0 mg/kg/injection, schedule: Q01DX012 (ip), vehicle: saline with Tween-80): 23 % of control
T/C (dose: 4.0 mg/kg/injection, schedule: Q01DX012 (ip), vehicle: saline with Tween-80): 28 % of control

CO[C@H]1C[C@@H]2CC[C@@H](C)[C@@](O)(O2)C(=O)C(=O)N2CCCC[C@H]2C(=O)O[C@H]([C@H](C)C[C@@H]2CC[C@@H](O)[C@H](OC)C2)CC(=O)[C@H](C)C=C(C)[C@@H](O)[C@@H](OC)C(=O)[C@H](C)C[C@H](C)/C=C/C=C/C=C1C
T/C (dose: 12.5 mg/kg/injection, schedule: Q07DX003 (ip), vehicle: saline with Tween-80): 40 % of control and 45 % of control
T/C (dose: 25.0 mg/kg/injection, schedule: Q07DX003 (ip), vehicle: saline with Tween-80): 26 % of control and 45 % of control
T/C (dose: 50.0 mg/kg/injection, schedule: Q07DX003 (ip), vehicle: saline with Tween-80): 20 % of control and 39 % of control
T/C (dose: 100.0 mg/kg/injection, schedule: Q07DX003 (ip), vehicle: saline with Tween-80): 33 % of control
T/C (dose: 200.0 mg/kg/injection, schedule: Q07DX003 (ip), vehicle: saline with Tween-80): 14 % of control and 25 % of control
T/C (dose: 400.0 mg/kg/injection, schedule: Q07DX003 (ip), vehicle: saline with Tween-80): 14 % of control and 23 % of control

CC(O)CCC(=O)c1ccoc1 (stereo not drawn)
T/C (dose: 0.63 mg/kg/injection, schedule: Q07DX002 (ip), vehicle: saline): 150 % of control
T/C (dose: 1.25 mg/kg/injection, schedule: Q03HX006 (ip), vehicle: saline): 42 % of control
T/C (dose: 2.5 mg/kg/injection, schedule: Q03HX006 (ip), vehicle: saline): 64 % of control
T/C (dose: 2.5 mg/kg/injection, schedule: Q07DX002 (ip), vehicle: saline): 166 % of control
T/C (dose: 5.0 mg/kg/injection, schedule: Q03HX006 (ip), vehicle: saline): 58 % of control
T/C (dose: 5.0 mg/kg/injection, schedule: Q07DX002 (ip), vehicle: saline): 150 % of control
T/C (dose: 10.0 mg/kg/injection, schedule: Q07DX002 (ip), vehicle: saline): 185 % of control

CSc1cc(C)[o+]c(C)c1
T/C [2]: 117 % of control
T/C [3]: 184 % of control
T/C [10]: 108 % of control

O=Cc1ccccc1
T/C [2]: 77 % of control
T/C [5]: 69 % of control
T/C [3]: 83 % of control
T/C [6]: 77 % of control
T/C [4]: 98 % of control
T/C [1]: 108 % of control
T/C [10]: 60 % of control
T/C [9]: 112 % of control
T/C (dose: 400.0 mg/kg/injection, schedule: Q07DX002 (ip), vehicle: Klucel (hydroxypropylcellulose) (HPC)): 97 % of control

O=C(O)CCc1cccc2c(=O)cc(-c3ccccc3)oc12
T/C (dose: 100.0 mg/kg/injection, schedule: Q07DX002 (ip), vehicle: saline): 60 % of control
T/C (dose: 200.0 mg/kg/injection, schedule: Q07DX002 (ip), vehicle: saline): 100 % of control
T/C [11]: 120 % of control

COC1=C(OC)C(=O)C(C/C=C(\C)CC/C=C(\C)CC/C=C(\C)CC/C=C(\C)CC/C=C(\C)CC/C=C(\C)CC/C=C(\C)CC/C=C(\C)CC/C=C(\C)CCC=C(C)C)=C(C)C1=O
T/C [8]: 202 % of control
T/C [6]: 86 % of control
T/C [1]: 83 % of control
T/C [9]: 121 % of control
T/C [7]: 110 % of control

OCC12COCN1COC2
T/C (dose: 25.0 mg/kg/injection, schedule: Q07DX002 (ip), vehicle: saline): 82 % of control and 86 % of control
T/C [11]: 85 % of control and 97 % of control
T/C (dose: 800.0 mg/kg/injection, schedule: Q07DX002 (ip), vehicle: saline): 91 % of control

CCCCCCCCSC1=C(Cl)C(=O)C(OC)=C(OC)C1=O
T/C (dose: 1.56 mg/kg/injection, schedule: Q07DX002 (ip), vehicle: saline with Tween-80): 94 % of control and 95 % of control
